US12396948B2, “Pharmaceutical compositions for the treatment of ophthalmic conditions” (Rhodes Technologies, priority 2017, dated 2025)
Structures can show the parent of a compound that is named as a salt.

Columns and labels:
[1] = cited from earlier work
[2] = Impurity profile of antioxidant excipient solutions (Example 42); type: physicochemical; details: for Impurity (% Area) Total / Impurity (% w/w) Total: excipient solution; for Impurity (% w/w) Total: converted to levels corresponding to antioxidant concentrations in the dronabinol formulations
mouse = assay: Repeated dosing study on IOP lowering effects (Example 58); type: in vivo; details: for maximum IOP reduction: twice daily 7 days, vs contralateral untreated eye
Method: Study protocol is similar to Dose-Response Relationship Study described above, except that the animals are divided into three groups (as specified below). A single 5 μL drop was instilled topically onto one eye of each mouse twice daily starting at time 0 of Day 1.
The contralateral eye was untreated. IOP of both eyes was measured at −1 h (baseline), 2 h, 4 h, 6 h, 8 h, 12 h. […] In addition to IOP measurement, animals were evaluated for possible ocular and gross systemic adverse effects. • Group 1: Vehicle • Group 2: Dronabinol (optimal concentration determined in studies above) • Group 3: Timolol (0.5%) Results: The results are presented in FIGS. 28 and 29, which illustrate comparison of IOP effects of the Dronabinol formulations, vehicle, and Timolol. The formulations were administered twice daily at 8-9 AM (Time 0) and 4-5 PM starting Day 1 till Day 7. The upper panel reports IOP values at the indicated time points after dosing (IOP at Time 0 was obtained immediately prior to the morning dosing) of Days 1, 4, and 7. The bottom panel represents % IOP change compared to the contralateral untreated eye, whose IOP defines 100%. Data are shown as mean±SEM.

Female C57BL/6J mice [3] = assay: Conscious mouse IOP after single topical drop (Example 57); type: in vivo; details: for maximal IOP effect: conscious mice
Method: Female C57BL/6J mice (Jackson Laboratories, Bar Harbor, ME; age 2-3 months) were kept in 12 h light/12 h dark conditions (lights on 0600 h) and fed with standard chow. All experimental procedures were conducted in accordance with the ARVO Statement for the Use of Animals in Ophthalmic and Vision Research, and the University of North Texas Health Science Center Institutional Animal Care and Use Committee Regulations and Guidelines.
Dronabinol ophthalmic solutions (0.05% and 0.5%) and the corresponding vehicle were provided by Rhodes Technologies. Timolol maleate 0.5% (Hi. Tech Pharmacal) was purchased. Formulation AE10C-B was prepared as described above (Table 44).
The 2-tailed unpaired Student's t-test was used for comparison of results at the same time point between two study groups. P values of less than 0.05 were considered significant. All data are presented as mean±SEM.

Female C57BL/6J mice [4] = assay: Mouse aqueous humor dynamics by constant flow infusion (Example 57); details: 0.5% emulsion
Description: Briefly, immediately following bilateral tonometry in anesthetized animals, both eyes received a drop of proparacaine HCl (0.5%) for topical anesthesia, and both anterior chambers were cannulated with a 30G needle (one per eye) connected to previously calibrated BLPR-2 flow-through pressure transducers (World Precision Instruments (WPI), Sarasota, FL) for the continuous determination of pressure. A drop of PBS was also given to each eye topical ocular to prevent corneal drying. The opposing end of each transducer was connected to a 3-way valve, which in turn was connected to: (a) a 50 FAL glass microsyringe (Hamilton Company, Reno, NV) filled with sterile PBS loaded into an SP101i microdialysis infusion pump (WPI), and (b), an open ended, variable height manometer. Signals from the pressure transducers were passed via a TBM4M Bridge Amplifier (WPI) and a Lab-Trax analog-to-digital converter (WPI) to a computer. Data were recorded using LabScribe2 software (WPI).
The manometer was closed to the circuit and eyes were infused at a flow rate of 0.1 μL/min. When pressure had stabilized, pressure measurements were recorded, and flow rate was increased sequentially to 0.2, 0.3, 0.4, and 0.5 μL/min. Three stabilized pressures (spaced 5 min apart) at each flow rate were recorded. Aqueous outflow facility (C) in each eye of each animal was calculated as the reciprocal of the slope of a plot of Mean Stabilized Pressure as ordinate against Flow Rate as abscissa.
Episcleral venous pressure (Pe) was estimated using the blood reflux method. Briefly, following anterior chamber cannulation, the manometer was opened to the circuit, manometric pressure was set to equal pre-cannulation (anesthetized) TOP, and then manometric pressure was lowered incrementally (at the rate of 1 mmHg/min) until the point at which blood was seen (using a dissection microscope under 30× magnification) to reflux into the scleral collector channels and then Schlemm's canal. The manometric pressure at which Schlemm's canal was seen to fill with refluxed blood was regarded as Pe.
After completion of the above measurements, animals were euthanized by anesthetic overdose and, 20 min following euthanasia, C was measured again. Thus values for Clive and C dead were obtained. Following euthanasia, both aqueous humor formation rate (Fin) and Pe are equal to zero, and via algebraic rearrangement of the modified Goldmann equation {IOP=[(Fin−Fu)/C]+Pe}, values for Fu were thus calculated for each individual perfusion rate and corresponding TOP. The mean of those resultant 5 values was reported as Fu.
Aqueous Humor Formation Rate (Fin) was calculated for each eye by further algebraic rearrangement of the modified Goldmann equation: Fin=[C×(IOP−Pe)]+Fu.

Vitamin E
Solub. in Water (in words) [1]: Insoluble

COc1ccc(O)c(C(C)(C)C)c1 [Butylated Hydroxyanisole (BHA)]
Solub. in Water (in words) [1]: Insoluble

O=S([O-])([O-])=S.[Na+].[Na+] [Sodium Thiosulfate]
Impurity (% Area) Total [2]: 0.0 % Area | Impurity (% w/w) Total [2]: 0.0 % w/w

CC(C)(C)NC[C@H](O)COc1nsnc1N1CCOCC1 [Timolol, Timolol maleate]
prolonged IOP reduction (baseline IOP at Days 4 & 7) (mouse; 0.5%, twice daily): did not produce this prolonged IOP reduction | maximum IOP reduction (mouse; 0.5%): 35.1% | effect on mouse IOP (Female C57BL/6J mice [3]; 0.5%, positive control): lowered mouse TOP as expected

CCCCCc1cc(O)c2c(c1)OC(C)(C)[C@@H]1CCC(C)=C[C@@H]21 [Dronabinol, (−)-trans-Δ^9-tetrahydrocannabinol]
ocular adverse effect (Female C57BL/6J mice [4]): No ocular adverse effect was observed | IOP lowering in anesthetized animals (Female C57BL/6J mice [4]; 2 h after treatment): 29.9% | aqueous humor formulation rate, change (Female C57BL/6J mice [4]; 2 h after treatment): −21.6% | aqueous outflow facility, increase (Female C57BL/6J mice [4]; 2 h after treatment): 54.5% | episcleral venous pressure, change (Female C57BL/6J mice [4]; 2 h after treatment): −26.8% | maximum IOP reduction (mouse; 0.005% formulation): 19.8% | maximum IOP reduction (mouse; 0.015% formulation): 25.7% | maximum IOP reduction (mouse; 0.05% formulation): 33.2% | duration of action (mouse; 0.05%, lowered baseline IOP at Days 4 & 7): > 16 h | tachyphylaxis or adverse effect (mouse; 7-day twice daily dosing, 0.005%, 0.015%, 0.05%): No tachyphylaxis or adverse effect was observed | IOP reduction at 24 h after treatment (Female C57BL/6J mice [3]; 0.05% and 0.5%, single 5 μL drop): still significant | ocular, systemic, or behavioral adverse effects (Female C57BL/6J mice [3]; 0.05% and 0.5%, single topical drop): No ocular, systemic, or behavioral adverse effects were observed | maximal IOP effect (Female C57BL/6J mice [3]; 0.05% ophthalmic solution, single 5 μL drop, @ 6 h): −22.3% | maximal IOP effect (Female C57BL/6J mice [3]; 0.5% ophthalmic solution, single 5 μL drop, @ 2 h): −25.8%

O=C(O)CC(O)C(=O)O (centres unmarked) [Malic Acid]
Solub. in Water [1]: 59.2 g/100 mL water

O=S([O-])[O-].[Na+].[Na+] [Sodium Sulfite]
Impurity (% Area) Total [2]: 0.0 % Area | Impurity (% w/w) Total [2]: 0.0 % w/w

O=C(O)/C=C/C(=O)O [Fumaric Acid]
Solub. in Water [1]: 0.007 mg/L

O=S=O [Sulfur Dioxide]
Solub. in Water [1]: 8.5 g/100 mL water

OCC(O)CS (centres unmarked) [Monothioglycerol]
Solub. in Water (in words) [1]: Slightly

CC(=O)OC/C=C(C)/C=C/C=C(C)/C=C/C1=C(C)CCCC1(C)C [Vitamin A]
RRT 0.83 in testing of excipients ([2]; 0.5% Vitamin A): ~0.5 % w/w

O=S([O-])S(=O)(=O)[O-].[K+].[K+] [Potassium Metabisulfite]
Solub. in Water [1]: 49.5 g/100 mL water

CCCCCCCCCCCCCCCC(=O)OC[C@H](O)[C@H]1OC(=O)C(O)=C1O [Ascorbyl Palmitate]
Solub. in Water [1]: 0.07 mg/L

O=S([O-])S(=O)(=O)[O-].[Na+].[Na+] [Sodium Metabisulfite]
Solub. in Water (in words) [1]: Freely

CCCOC(=O)c1cc(O)c(O)c(O)c1 [Propyl Gallate]
Solub. in Water [1]: 0.35 g/100 mL water
